Data on two compounds can be found in patent publication US10695482B2, “Cartridge and method for increasing myocardial function” (SeaStar Medical, Inc., priority 2011, dated 2020).

Assay [1] has as its system leukocytes in human whole blood. The assay is described as follows: In vitro whole blood leukocyte activation assay. Type of assay: cell-based. The settings on record: for CD11b: n = 3; for IL-10: n = 4; for IL-8: n = 5; for IL-6: n = 7. The method, then: Heparinized human whole blood was added to tubes with or without lipopolysaccharide (LPS) (10 μg/mL) or formyl-Methionyl-Leucyl-Phenylalanine (fMLF, 50 nM). […] The release of IL-6, IL-8, or IL-10 was measured using commercially available ELISA kits from R&D Systems. The release of elastase was measured using a commercially available ELISA kit from Bender MedSystems. The release of lactoferrin was measured using a commercially available ELISA kit from EMD Chemicals. […] Samples were incubated for various times at 37° C. and 5% CO2. CD11b activation was measured using an FITC-conjugated mouse anti-human antibody (AbD Serotech) and evaluated on an Accuri C6 flow cytometer.

The test system of assay [2] is leukocytes in porcine blood. The assay can be described thus: Microscopic flow chamber: leukocyte interaction with polysulfone membrane. Type of assay: cell-based, pig. The source says:
A custom microscopic flow chamber system was set up to enable microscopic analysis of leukocyte interaction with the SCD membrane. The flow chamber consisted of a polycarbonate housing with an inlet and outlet for perfusion. A polysulfone membrane was affixed to the polycarbonate block with a gasket which directed shear flow. The thickness of the gasket (100 μm) along with the length (2 cm) and the width of the channel (1.5 mm) determined the volume of the flow chamber. Microscopic imaging was accomplished through an optical window made up of a cover glass affixed to the bottom of the polycarbonate block. Either isolated blood or purified leukocytes were used for this study.
Isolated blood was prone to activation from excessive handling. Thus, 5 mL of fresh heparinized porcine blood was minimally manipulated prior to the flow chamber study. Briefly, leukocytes were fluorescently labeled using 50 μg/mL of Hoechst 33342 dye. Further, the leukocytes were activated by adding 1 μg/ml lipopolysaccharide (LPS) directly to the blood samples. […] Blood passed through the flow chamber at a rate of 20 μL/min with calculated shear forces between 1-10 dynes/cm^2. For each isolated blood sample, sequences were acquired in triplicate.
Microscopic analysis of cell capture events was accomplished using either a Zeiss Axiovert 200M or Axio-Observer epifluorescence microscope equipped with a microscope stage-top incubator to control environmental temperature and CO2 content. Fluorescence images were acquired with either a Zeiss MRm3 or an Icc1 camera at a frequency of 1 frame/second for 5 minutes, for analysis of leukocyte/membrane interaction, and at 1 frame/minute for 1 hour sequences, for analysis of long term leukocyte attachment. Frame by frame evaluation of leukocyte rolling, attachment and detachment of leukocytes was carried out to determine the total number and duration of these phenomena. An attachment event was defined as when a leukocyte appeared in the same location for multiple frames within a sequence. […]

As for Heparin, in assay [1] (Baseline), the CD11b came to 22.55 ± 1.06 MFI × 10^3, the IL-10 turned out to be 0.11 ± 0.07 ng/mL, the IL-8 was 0.0 ± 0^ ng/mL and the IL-6 worked out at 0.18 ± 0.04 ng/mL. In assay [1] (Stimulated (LPS, fMLF)), this compound yielded a CD11b of 53.43 ± 3.12 MFI × 10^3, an IL-10 of 3.74 ± 0.94 ng/mL, an IL-8 of 34.18 ± 6.66 ng/mL and an IL-6 of 65.42 ± 19.77 ng/mL.

For `O=C(O)CC(O)(CC(=O)O)C(=O)O` [Citrate], the “persistent leukocyte adhesion events” value in assay [2] (1 hour sequences, LPS and citrate versus LPS only, preliminary analysis) is recorded as “far fewer persistent leukocyte adhesion events”. Also, the rolling events entry in assay [2] (LPS and citrate treated blood) is listed as “increase in rolling events”. Moreover, the “leukocyte attachment to polysulfone membranes during shear flow” value in assay [2] (LPS-activated blood, low ionized calcium, FIG. 17) is on record as “statistically significant decrease in leukocyte attachment”.
